What all share (type): in vivo
Test [1] deals with Pseudoperonospora cubensis (PSPECU). Kind of test: Cucumber downy mildew foliar protectant test. The following applies: 200 ppm foliar, inoculated one day after treatment, read-out: Activity against fungal diseases PSPECU. As for the experimental part: The plants were inoculated with the fungus one day after treatment. ***=80-100% control; **=50-79% control; *=0-49% control. It will be understood by those in the art that the efficacy of the compounds against the foregoing fungi establishes the general utility of the compounds as fungicides. The activity of the compounds as effective fungicides was determined by applying the compounds to plants and observing control of fungal disease. […] All plants were inoculated with spores of the fungus the day after treatment, then incubated in an environment conducive to disease development. Disease severity was evaluated 4 to 25 days later, depending on the speed of disease development. The following experiments were performed in the laboratory to determine the fungicidal efficacy of the compounds of the invention. Cucumber Downy Mildew (Causal Agent Pseudoperonospora cubensis; Bayer Code […]): Cucumber plants (variety “Bush Champion' or 'Bush Pickle Hybrid') were grown from seed in a soil-less peat-based potting mixture (Metromix) until the first true leaf was 20-80% expanded. Each pot contained 1 seedling. These plants were sprayed until wet with the formulated test compound. On the following day, the leaves were inoculated with an aqueous suspension of downy mildew sporangia and the plants were kept in high humidity for one day to permit sporangia to germinate and infect the leaf. The plants were then incubated in a growth chamber until disease developed on untreated control plants. Table 1 presents the activity of typical compounds of the present invention when evaluated in these experiments. The effectiveness of the test compounds at controlling disease when sprayed on leaves was determined by assessing the severity of disease on treated plants, then converting the severity to percent control based on the level of disease on untreated, inoculated plants.

Test [2] has as its system Magnaporthe grisea = Pyricularia oryzae (PYRIOR). Kind of test: whole plant or invertebrate. The following applies: foliar, read-out: Activity against fungal diseases PYRIOR.
Test [3] has as its system Puccinia recondita tritici (PUCCRT). Kind of test: Leaf rust of wheat foliar protectant test. The settings on record: read-out: Activity against fungal diseases PUCCRT; for pest or weed control at 200 ppm: 200 ppm foliar, inoculated one day after treatment; for pest or weed control at 3 ppm: foliar, Tested at 3 ppm (footnote a). Here is the method: (§1) The plants were inoculated with the fungus one day after treatment. ***=80-100% control; **=50-79% control; *=0-49% control. It will be understood by those in the art that the efficacy of the compounds against the foregoing fungi establishes the general utility of the compounds as fungicides. The activity of the compounds as effective fungicides was determined by applying the compounds to plants and observing control of fungal disease. […] All plants were inoculated with spores of the fungus the day after treatment, then incubated in an environment conducive to disease development. Disease severity was evaluated 4 to 25 days later, depending on the speed of disease development. The following experiments were performed in the laboratory to determine the fungicidal efficacy of the compounds of the invention. […] Each pot contained 3-8 seedlings. These plants were sprayed until wet with the formulated test compounds. On the following day, the leaves were inoculated with an aqueous spore suspension of Puccinia recondita tritici and the plants were kept in high humidity overnight to permit spores to germinate and infect the leaf. The plants were then transferred to a greenhouse until disease developed on untreated control plants. Table 1 presents the activity of typical compounds of the present invention when evaluated in these experiments. The effectiveness of the test compounds at controlling disease when sprayed on leaves was determined by assessing the severity of disease on treated plants, then converting the severity to percent control based on the level of disease on untreated, inoculated plants.

Test [4] deals with Septoria tritici (SEPTTR). Kind of test: Septoria blotch of wheat foliar protectant test. The following applies: Zymoseptoria tritici, read-out: Activity against fungal diseases SEPTTR; for pest or weed control at 200 ppm: 200 ppm foliar, inoculated one day after treatment; for pest or weed control at 25 ppm: foliar, Tested at 25 ppm (footnote b). As for the experimental part: as §1, with “3-10” for “3-8”, “compound.” for “compounds.”, “Septoria” for “Puccinia recondita”, “(one day in a dark dew chamber followed by three days in a lighted dew chamber)” for “overnight”

Regarding `N#Cc1ccnc(Oc2ccc(CCNc3ncnc4c(F)ccc(F)c34)cc2)c1` [Compound 2], the pest or weed control at 200 ppm in test [1] lay within 80 to 100%; in test [2] it was 80 to 100%; in test [3] it was 80 to 100%; in test [4], 0 to 49%.
For `Oc1ccc(CCNc2ncnc3c(F)ccc(F)c23)cc1` [Compound 4], the pest or weed control at 200 ppm in test [1] lay within 50 to 79%; in test [2] it was 0 to 49%; in test [3], 50 to 79%; in test [4] it was 0 to 49%.
`Fc1cc(C(F)(F)F)cnc1Oc1ccc(CCNc2ncnc3c(F)ccc(F)c23)cc1` [Compound 5]: the pest or weed control at 200 ppm in test [1], in test [2] and in test [3] was 80 to 100% throughout. The pest or weed control at 25 ppm in test [4] is 80 to 100%.
Turning to `Fc1ccc(F)c2c(NCCc3ccc(Oc4ncccc4C(F)(F)F)cc3)ncnc12` [Compound 13], the pest or weed control at 3 ppm in test [3] lay within 80 to 100%. Besides, the pest or weed control at 25 ppm in test [4] is 80 to 100%.
Take `Cc1cc(C(F)(F)F)cc(Oc2cc(C)c(CCNc3ncnc4c(F)ccc(F)c34)cc2C)n1` [Compound 22]: the pest or weed control at 200 ppm in test [2] lay in the range of 50 to 79%; in test [3], 80 to 100%. The pest or weed control at 25 ppm in test [4] fell in the range of 80 to 100%.
As to `COc1cc(CCNc2ncnc3c(F)cc(F)c(F)c23)ccc1O` [Compound 33], in test [3], the pest or weed control at 3 ppm fell in the range of 0 to 49%. The pest or weed control at 25 ppm in test [4] fell in the range of 0 to 49%.
Regarding `Oc1cccc(CCNc2ncnc3c(F)ccc(F)c23)c1` [Compound 35], the pest or weed control at 200 ppm in test [1] is 80 to 100%; in test [3], 50 to 79%.
In the case of `COC(=O)c1cnc(Oc2ccc(CCNc3ncnc4c(F)ccc(F)c34)cc2C)cc1C(F)(F)F` [Compound 36], the pest or weed control at 200 ppm in test [1] and in test [3] was 80 to 100% each time. Further, the pest or weed control at 25 ppm in test [4] is 0 to 49%.
For the molecule `Oc1ccc(CCNc2ncnc3c(F)ccc(F)c23)cc1Br` [Compound 38], the pest or weed control at 200 ppm in test [1], in test [2] and in test [3] was 0 to 49% throughout.
For the molecule `Fc1ccc(F)c2c(NCCc3ccc(Oc4ccnc(C(F)(F)F)c4)cc3)ncnc12` [Compound 71], the pest or weed control at 3 ppm in test [3] lay in the range of 80 to 100%. The pest or weed control at 25 ppm in test [4] was 80 to 100%.
As for `Fc1cc(F)c2ncnc(NCCc3ccc(Oc4cc(C(F)(F)F)ccn4)c(Cl)c3)c2c1F` [Compound 92], the pest or weed control at 200 ppm is 80 to 100% in test [2], 50 to 79% in test [3] and 50 to 79% in test [4].
For `Cc1cc(CCNc2ncnc3c(F)ccc(F)c23)ccc1Oc1nc(C(F)(F)F)nc(F)c1F` [Compound 102], the figures for the pest or weed control at 200 ppm in test [2], in test [3] and in test [4] were 80 to 100%, 80 to 100% and 0 to 49%, respectively.
As to `Fc1ccc(F)c2c(NCCc3ccc(Oc4cc(Cl)nc(C(F)(F)F)n4)cc3)ncnc12` [Compound 103], the pest or weed control at 200 ppm in test [2] is 80 to 100%; in test [3], 80 to 100%; in test [4], 0 to 49%.
For `COc1cc(CCNc2ncnc3c(F)ccc(F)c23)ccc1Oc1cc(Cl)nc(C(F)(F)F)n1` [Compound 104], the results for the pest or weed control at 200 ppm in test [2], in test [3] and in test [4] were 80 to 100%, 80 to 100% and 0 to 49%, respectively.
Regarding `COc1ccc2c(c1)CC(Nc1ncnc3c(F)ccc(F)c13)C2` (centres unmarked) [Compound 105], the figures for the pest or weed control at 200 ppm in test [2], in test [3] and in test [4] were 80 to 100%, 80 to 100% and 0 to 49%, respectively.
For `Fc1ccc(F)c2c(NCCc3ccc(Oc4cc(C(F)(F)F)ncn4)cc3)ncnc12` [Compound 109], the pest or weed control at 200 ppm in test [2], in test [3] and in test [4] was 80 to 100% each time.
In the case of `COc1ccc(C(C)Nc2ncnc3c(F)ccc(F)c23)cc1` (centres unmarked) [Compound 120], the values for the pest or weed control at 200 ppm in test [3] and in test [4] were 80 to 100% and 0 to 49%, respectively.
Regarding `Fc1ccc(F)c2c(OCCc3ccc(OCC(F)(F)F)cc3)ncnc12` [Compound 121], the pest or weed control at 3 ppm in test [3] was 0 to 49%. For the same molecule, the pest or weed control at 25 ppm in test [4] fell in the range of 50 to 79%.
For `Fc1ccc(F)c2c(NCCc3ccc(Oc4cncc(C(F)(F)F)c4)cc3)ncnc12` [Compound 123] the same measures were 80 to 100% and 80 to 100%.
On the same counts, the results for `Cc1ccnc(Oc2ccc(CCNc3ncnc4c(F)ccc(F)c34)cc2)c1` [Compound 128] are 80 to 100% and 50 to 79%.
Turning to `CC(Cc1ccc(Oc2cc(C(F)(F)F)ccn2)cc1)Nc1ncnc2c(F)ccc(F)c12` (centres unmarked) [Compound 134], the pest or weed control at 3 ppm in test [3] is 80 to 100%. Further, the pest or weed control at 25 ppm in test [4] lay within 80 to 100%.
Turning to `CC(Cc1ccc(Oc2cc(C(F)(F)F)ncn2)cc1)Nc1ncnc2c(F)ccc(F)c12` (centres unmarked) [Compound 135], in test [3], the pest or weed control at 3 ppm is 80 to 100%. In addition, the pest or weed control at 25 ppm in test [4] is 80 to 100%.
As for `CC(Cc1ccc(Oc2ccc(C(F)(F)F)cn2)cc1)Nc1ncnc2c(F)ccc(F)c12` (centres unmarked) [Compound 136], in test [3], the pest or weed control at 3 ppm was in the range of 80 to 100%. In addition, the pest or weed control at 25 ppm in test [4] was 80 to 100%.
For the molecule `CC(Cc1ccc(Oc2ncc(C(F)(F)F)cc2F)cc1)Nc1ncnc2c(F)ccc(F)c12` (centres unmarked) [Compound 137], in test [3], the pest or weed control at 3 ppm lay in the range of 50 to 79%. For the same molecule, the pest or weed control at 25 ppm in test [4] fell in the range of 80 to 100%.
In the case of `CC(Cc1ccc(Oc2cnccc2C(F)(F)F)cc1)Nc1ncnc2c(F)ccc(F)c12` (centres unmarked) [Compound 138], the pest or weed control at 3 ppm in test [3] was 80 to 100%. Moreover, the pest or weed control at 25 ppm in test [4] is 80 to 100%.
Consider `COc1ccc(C(C)CNc2ncnc3c(F)ccc(F)c23)cc1` (centres unmarked) [Compound 139], for which the pest or weed control at 3 ppm in test [3] lay in the range of 0 to 49%. In addition, in test [4], the pest or weed control at 25 ppm was in the range of 0 to 49%.
For the molecule `CC(CNc1ncnc2c(F)ccc(F)c12)c1ccc(Oc2cnccc2C(F)(F)F)cc1` (centres unmarked) [Compound 141], the pest or weed control at 3 ppm in test [3] fell in the range of 80 to 100%. In test [4], the pest or weed control at 25 ppm was in the range of 80 to 100%.
Take `CC(CNc1ncnc2c(F)ccc(F)c12)c1ccc(Oc2cc(C(F)(F)F)ncn2)cc1` (centres unmarked) [Compound 142]: in test [3], the pest or weed control at 3 ppm lay within 80 to 100%. Moreover, the pest or weed control at 25 ppm in test [4] fell in the range of 80 to 100%.
As for `CC(CNc1ncnc2c(F)ccc(F)c12)c1ccc(Oc2ccc(C(F)(F)F)cn2)cc1` (centres unmarked) [Compound 143], the pest or weed control at 3 ppm in test [3] lay in the range of 0 to 49%. For the same molecule, in test [4], the pest or weed control at 25 ppm fell in the range of 80 to 100%.
On the same counts, the results for `CC(CNc1ncnc2c(F)ccc(F)c12)c1ccc(Oc2cc(C(F)(F)F)ccn2)cc1` (centres unmarked) [Compound 144] are 80 to 100% and 80 to 100%.
Take `CC(CNc1ncnc2c(F)ccc(F)c12)c1ccc(Oc2ncc(C(F)(F)F)cc2F)cc1` (centres unmarked) [Compound 145]: the pest or weed control at 3 ppm in test [3] is 0 to 49%. Further, in test [4], the pest or weed control at 25 ppm fell in the range of 50 to 79%.

For the origin of these results see patent US9000162B2, “5,8-difluoro-4-(2-(4-(heteroaryloxy)-phenyl)ethylamino)quinazolines and their use as agrochemicals” (Dow AgroSciences LLC, priority 2008, dated 2015).
